One series in a line: Plasma stability assay. It counts as in vitro ADME. Conditions: mouse plasma, 120 min, 37 °C. The procedure: In addition to hepatic metabolism, drugs are also prone to degradation and modification by plasma enzymes, including hydrolases and esterases. Compounds with low plasma stability often show rapid clearance and a short half‐life. […] In this study, we assessed the metabolic stability of compound 17 by incubating it in mouse plasma for 120 min.
The plasma stability of compound 17 was evaluated. Briefly, mouse plasma is equilibrated to 37 °C and biotransformation is initiated by addition of compound solution and mixing. At each specified time point (0, 60, and 120 min), the test compound was extracted using ice‐cold methanol to halt degradation, with the IS added during the quenching phase. The concentration of the test compound was then quantified using LC‐MS. The percentage of the test compound remaining at each time point, relative to the 0 min reference, was recorded. Procaine (low stability) and procainamide (high stability) served as controls. All experiments were conducted in triplicate.

Series [1] relates to ROR1 pathways in JeKo‐1 cells. Kind of series: Western blotting of ROR1 pathway. It counts as cell-based, human. Conditions: western blot. From the text:
This time‐dependent reduction in P‐ROR1 is particularly significant, as it represents the upstream event that drives the observed proapoptotic downstream effects. […] Indeed, activation of ROR1 initiates the nonclassical Wnt (PI3K/AKT/mTOR) pathway and upregulates the phosphorylation level of AKT, which contributes to the survival and proliferation of cancer cells.^[ [25] ^]
Figure 6 Molecular effects of 17 on ROR1 pathways in JeKo‐1 cells. For each western blotting analysis, three independent experiments were performed, and the SD is expressed by error bars. The relative fold change versus untreated cells, set as 1, is shown in the graph. *, **, and *** denote respectively p < 0.05, p < 0.01, and p < 0.001 versus Ctrl.
JeKo‐1 cells (2.5 × 10^6 cells/well) were seeded in a T‐75 flask, treated with compound 17 (10 μM) for different times (4, 8, and 24 h). After treatments, cells were washed twice with PBS and detached with a scraper, centrifuged at 655 g × 10 min at 4 °C. Full proteins were extracted by lysis buffer (20 mM Tris‐HCl pH 7.5, 150 mM NaCl, 1 mM Na2EDTA, 1 mM EGTA, 2% NP‐40, 1% sodium deoxycholate, 1× protease and phosphatase inhibitor cocktail) for 30 min. Then, cell lysates were centrifuged at 4850 g for 20 min at 4 °C. 60 μg of total proteins were run on 8% SDS‐PAGE and transferred to nitrocellulose membranes using a minigel apparatus (Bio‐Rad Laboratories, Hercules, CA, USA). Blots were blocked in phosphate‐buffered saline, containing Tween‐20 0.1% and 5% BSA for 1 h at room temperature and incubated overnight with specific primary antibodies at 4 °C with slight agitation. α‐Tubulin was used as the loading control. […] Antigen‐antibody complexes were detected by enhanced chemiluminescence (ECL kit, Amersham, Germany). […]

For a further series, the system named is SH‐SY5Y cells. Nature of the series: MTT cell viability assay, SH‐SY5Y. To be noted: Homo sapiens, cytotoxicity, treated for 72 h, read-out: EC50 ± SD SH‐SY5Y. It counts as cell-based. How it is done: Cytotoxicity studies, assessing the activity of the synthetized compounds, were performed only on the molecules showing the best binding profile in the SPR assay. MTT test was performed on two cell lines known for overexpressing ROR1, particularly MTT assays were conducted on JeKo‐1 (human mantle cell lymphoma) and SH‐SY5Y (neuroblastoma), exposing them to different concentrations of compounds for 72 h (Table 2 ). […] This increased effectiveness is likely due to the high expression of the target protein in leukemia and other hematologic malignancies. […] A key structural difference in 18 and 19 compared to active compounds is the absence of the trifluoromethyl group on the aromatic ring. Indeed, the removal of the trifluoromethyl group (18) or the incorporation of an electron‐donating substituent (19) alters the interaction with the ATP‐binding pocket.
The neuroblastoma SH‐SY5Y cells, a human neuroblastoma cell line of neural crest origin, were obtained from ATCC and were grown in DMEM supplemented with 10% v/v fetal bovine serum, 2 mM L‐glutamine, 100 U mL^−1 penicillin, and 0.1 mg mL^−1 streptomycin.
Cell viability was established by measuring mitochondrial metabolic activity with MTT. In brief, SH‐SY5Y (20 × 10^3 cells/well) and JeKo‐1 (10 × 10^3 cells/well) were plated into 96‐well plates for 24 h, then the compounds (1.56–50 μM) were added. […], cells were replaced with a fresh medium containing 0.5 mg mL^−1 MTT.^[ [45] ^] Cells were incubated for 1–3 h at 37 °C, then the medium was discarded, and formazan blue crystals in the cells dissolved with 100 μL per well of a solution containing isopropanol/HCl 0.1 M. The absorbance was measured at 570 nm using a microplate reader (Multiskan Go, Thermo Scientific, Waltham, MA, USA). Cell viability was expressed as a percentage relative to the untreated cells cultured in medium with 0.1% DMSO and set to 100%, whereas 10% DMSO was used as positive control and set to 0% of viability. The EC50 values were calculated using GraphPad Prism 8.0 software by nonlinear regression of dose‐response inhibition.

One may read the EC50 as the concentration that produces a half-maximal response. Turning to `O=C(NCc1ccc(-c2ccccc2)cc1)Nc1ccc(NCC2CCNCC2)cc1C(F)(F)F` [Compound 17], the compound remaining intact result in “Plasma stability assay” is on record as “over 85%”. In series [1] (JeKo‐1, 10 μM, 4, 8 and 24 h), the AKT phosphorylation result is listed as “significant decrease” and the ROR1 phosphorylation entry is recorded as “marked reduction”. For the same compound, the “total ROR1 protein levels” value in series [1] (JeKo‐1, 10 μM, 24 h) is listed as “increase”. Moreover, the EC50 with SH‐SY5Y cells was 17.7 ± 2.73 µM.
